# Laboratory results as given in patent US8691865B2 (AbbVie Inc., priority 2008, dated 2014).
# Target: human Cav2.2 (Homo sapiens, UniProt Q00975)
# Experiment: Assessment of calcium channel activity using FLIPR (Ca2+ influx in IMR32 cells)
# Format: cell-based
# Settings: not given
# Outline: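 Human neuroblastoma IMR32 cells were seeded at 1−1.2×10^5 cells/well and cultured 48 h at 37 °C before FLIPR calcium influx measurement. Percent inhibition at each concentration was calculated against the no-inhibitor signal, and IC50 came from sigmoidal dose-response fits.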
# Chain of human Cav2.2 (Q00975 whole entry): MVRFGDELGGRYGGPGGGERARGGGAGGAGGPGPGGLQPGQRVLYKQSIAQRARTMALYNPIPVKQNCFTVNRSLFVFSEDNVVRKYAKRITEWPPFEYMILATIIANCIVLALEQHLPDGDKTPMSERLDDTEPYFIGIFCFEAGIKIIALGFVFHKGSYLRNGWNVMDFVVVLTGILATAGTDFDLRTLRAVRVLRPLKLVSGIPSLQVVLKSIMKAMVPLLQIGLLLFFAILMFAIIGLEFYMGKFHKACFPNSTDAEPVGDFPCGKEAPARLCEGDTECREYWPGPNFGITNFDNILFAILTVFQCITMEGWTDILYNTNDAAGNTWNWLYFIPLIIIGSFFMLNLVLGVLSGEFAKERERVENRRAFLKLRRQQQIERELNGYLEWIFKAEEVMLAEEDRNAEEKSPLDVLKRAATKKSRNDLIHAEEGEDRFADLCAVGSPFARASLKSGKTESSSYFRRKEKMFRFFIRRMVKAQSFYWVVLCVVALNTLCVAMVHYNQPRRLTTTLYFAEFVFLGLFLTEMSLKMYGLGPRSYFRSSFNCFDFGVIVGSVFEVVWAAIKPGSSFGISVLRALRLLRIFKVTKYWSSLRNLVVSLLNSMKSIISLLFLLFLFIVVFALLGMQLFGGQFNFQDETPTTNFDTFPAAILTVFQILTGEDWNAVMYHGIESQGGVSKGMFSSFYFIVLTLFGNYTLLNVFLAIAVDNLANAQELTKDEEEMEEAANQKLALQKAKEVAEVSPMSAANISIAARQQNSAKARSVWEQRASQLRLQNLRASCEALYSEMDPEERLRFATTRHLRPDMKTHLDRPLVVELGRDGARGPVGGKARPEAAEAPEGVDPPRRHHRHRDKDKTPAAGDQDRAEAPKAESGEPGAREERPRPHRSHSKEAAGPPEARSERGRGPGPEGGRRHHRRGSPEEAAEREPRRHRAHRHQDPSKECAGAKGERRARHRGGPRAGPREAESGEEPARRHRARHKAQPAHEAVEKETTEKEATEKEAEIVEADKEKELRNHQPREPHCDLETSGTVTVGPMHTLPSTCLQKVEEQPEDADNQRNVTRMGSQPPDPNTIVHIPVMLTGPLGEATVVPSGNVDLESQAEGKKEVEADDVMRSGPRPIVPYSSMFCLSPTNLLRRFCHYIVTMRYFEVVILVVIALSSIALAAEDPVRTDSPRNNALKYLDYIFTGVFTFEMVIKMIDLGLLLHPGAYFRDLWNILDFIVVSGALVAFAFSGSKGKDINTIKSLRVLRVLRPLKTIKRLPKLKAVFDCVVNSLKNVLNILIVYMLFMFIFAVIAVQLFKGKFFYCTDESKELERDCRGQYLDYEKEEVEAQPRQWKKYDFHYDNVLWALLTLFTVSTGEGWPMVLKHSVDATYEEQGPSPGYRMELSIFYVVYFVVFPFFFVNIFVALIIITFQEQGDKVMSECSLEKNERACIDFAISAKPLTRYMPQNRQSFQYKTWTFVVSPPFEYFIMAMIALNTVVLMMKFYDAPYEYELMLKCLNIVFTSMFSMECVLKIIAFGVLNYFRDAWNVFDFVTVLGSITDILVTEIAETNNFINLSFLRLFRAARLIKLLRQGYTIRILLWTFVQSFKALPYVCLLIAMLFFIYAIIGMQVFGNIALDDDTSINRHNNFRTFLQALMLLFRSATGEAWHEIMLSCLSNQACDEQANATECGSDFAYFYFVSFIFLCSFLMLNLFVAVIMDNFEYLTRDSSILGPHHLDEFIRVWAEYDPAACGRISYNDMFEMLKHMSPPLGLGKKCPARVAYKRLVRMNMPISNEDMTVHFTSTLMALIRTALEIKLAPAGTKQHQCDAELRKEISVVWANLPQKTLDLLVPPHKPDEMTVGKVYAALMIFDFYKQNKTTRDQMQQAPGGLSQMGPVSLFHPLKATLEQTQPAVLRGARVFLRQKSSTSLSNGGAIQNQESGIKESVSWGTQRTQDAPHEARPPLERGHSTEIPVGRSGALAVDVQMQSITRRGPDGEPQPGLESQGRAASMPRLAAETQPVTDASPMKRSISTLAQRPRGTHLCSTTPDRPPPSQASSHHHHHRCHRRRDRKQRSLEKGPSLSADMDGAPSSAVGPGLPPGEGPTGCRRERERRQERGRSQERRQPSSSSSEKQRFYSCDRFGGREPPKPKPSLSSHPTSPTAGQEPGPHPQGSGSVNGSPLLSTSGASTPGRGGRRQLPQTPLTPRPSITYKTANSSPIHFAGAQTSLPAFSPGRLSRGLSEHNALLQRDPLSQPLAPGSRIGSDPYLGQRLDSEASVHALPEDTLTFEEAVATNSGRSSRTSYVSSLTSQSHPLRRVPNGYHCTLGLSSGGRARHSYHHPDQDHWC
# Chain of human Cav2.2 (P54289 25-956 partner limits assumed): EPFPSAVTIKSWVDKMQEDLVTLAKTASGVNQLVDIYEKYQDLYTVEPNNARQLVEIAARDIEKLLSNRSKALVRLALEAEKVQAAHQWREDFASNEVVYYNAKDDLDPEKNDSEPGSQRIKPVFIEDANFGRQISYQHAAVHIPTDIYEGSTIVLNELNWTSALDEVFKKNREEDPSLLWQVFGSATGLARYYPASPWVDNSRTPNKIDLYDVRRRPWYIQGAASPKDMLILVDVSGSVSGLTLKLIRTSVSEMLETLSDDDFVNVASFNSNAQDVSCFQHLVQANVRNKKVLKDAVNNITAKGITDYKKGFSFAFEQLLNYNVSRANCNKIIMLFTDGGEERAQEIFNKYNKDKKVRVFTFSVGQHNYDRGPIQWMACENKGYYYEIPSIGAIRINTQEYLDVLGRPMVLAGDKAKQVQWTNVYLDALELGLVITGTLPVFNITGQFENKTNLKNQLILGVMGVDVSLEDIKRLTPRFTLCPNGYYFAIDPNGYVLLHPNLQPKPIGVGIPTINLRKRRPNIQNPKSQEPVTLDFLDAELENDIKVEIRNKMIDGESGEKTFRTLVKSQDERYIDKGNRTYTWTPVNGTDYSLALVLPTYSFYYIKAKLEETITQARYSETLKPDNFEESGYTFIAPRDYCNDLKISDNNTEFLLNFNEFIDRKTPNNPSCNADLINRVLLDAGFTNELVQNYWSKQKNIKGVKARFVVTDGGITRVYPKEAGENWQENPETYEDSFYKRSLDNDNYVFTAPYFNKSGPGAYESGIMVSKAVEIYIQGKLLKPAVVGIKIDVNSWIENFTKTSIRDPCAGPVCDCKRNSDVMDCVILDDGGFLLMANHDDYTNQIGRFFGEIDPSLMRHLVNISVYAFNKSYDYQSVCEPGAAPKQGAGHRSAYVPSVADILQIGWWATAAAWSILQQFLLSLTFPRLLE
# Chain of human Cav2.2 (P54289 957-1103 partner limits assumed): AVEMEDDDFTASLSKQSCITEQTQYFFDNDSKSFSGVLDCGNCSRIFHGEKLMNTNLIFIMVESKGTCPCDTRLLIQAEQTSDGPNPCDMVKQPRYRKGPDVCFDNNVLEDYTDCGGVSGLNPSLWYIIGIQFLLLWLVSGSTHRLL
# Chain of human Cav2.2 (P54284 whole entry partner): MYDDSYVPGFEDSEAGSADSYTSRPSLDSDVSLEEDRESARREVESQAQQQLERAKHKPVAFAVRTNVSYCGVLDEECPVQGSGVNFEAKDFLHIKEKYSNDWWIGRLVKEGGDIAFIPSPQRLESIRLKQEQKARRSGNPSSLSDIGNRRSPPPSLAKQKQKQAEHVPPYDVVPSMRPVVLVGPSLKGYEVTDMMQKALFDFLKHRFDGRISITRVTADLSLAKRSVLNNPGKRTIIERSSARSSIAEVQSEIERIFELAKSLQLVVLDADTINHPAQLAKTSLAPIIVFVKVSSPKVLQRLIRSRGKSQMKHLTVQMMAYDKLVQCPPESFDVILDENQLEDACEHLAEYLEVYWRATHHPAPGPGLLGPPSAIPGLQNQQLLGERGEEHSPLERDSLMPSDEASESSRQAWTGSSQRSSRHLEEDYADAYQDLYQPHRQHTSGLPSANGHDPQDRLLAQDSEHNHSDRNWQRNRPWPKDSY
row,IC50 [µM],SMILES
1,8.88,"CCC[C@H](NC)C(=O)N[C@@H]1CC[C@H]2CN(Cc3ccc(C(F)(F)F)cc3)C[C@H]21 [Example 371, N^2-methyl-N^1-{(3aS,4R,6aR)-2-[4-(trifluoromethyl)benzyl]octahydrocyclopenta[c]pyrrol-4-yl}-L-norvalinamide]"
2,2.59,"CN[C@@H](CC(C)C)C(=O)N[C@H]1CC[C@@H]2CN(c3cnccc3C(F)(F)F)C[C@@H]21 [Example 765, N^2-methyl-N-{(3aR,4S,6aS)-2-[4-(trifluoromethyl)pyridin-3-yl]octahydrocyclopenta[c]pyrrol-4-yl}-L-leucinamide]"
3,3.49,"CCC[C@@H](C(=O)N[C@H]1CC[C@@H]2CN(S(=O)(=O)c3cccs3)C[C@@H]21)N(C)C(=O)OC(C)(C)C [Example 531, tert-butyl methyl((S)-1-oxo-1-((3aR,4S,6aS)-2-(thiophen-2-ylsulfonyl)octahydrocyclopenta[c]pyrrol-4-ylamino)pentan-2-yl)carbamate]"
4,3.34,"CN[C@@H](CC(C)C)C(=O)N[C@H]1CC[C@@H]2CN(c3cncc(C(F)(F)F)c3)C[C@@H]21 [Example 736, N^2-methyl-N-{(3aR,4S,6aS)-2-[5-(trifluoromethyl)pyridin-3-yl]octahydrocyclopenta[c]pyrrol-4-yl}-L-leucinamide]"
5,0.66,"O=C(CC(c1ccccc1)c1ccccc1)N[C@H]1CC[C@H]2CN(Cc3cccc(C(F)(F)F)c3)C[C@H]21 (relative stereo) [Example 131, 3,3-diphenyl-N-{(3aS*,4S*,6aR*)-2-[3-(trifluoromethyl)benzyl]octahydrocyclopenta[c]pyrrol-4-yl}propanamide]"
6,1.49,"Cc1c(CN[C@H]2CC[C@@H]3CN(c4cccc(C(F)(F)F)n4)C[C@@H]32)[nH]c2ccc(F)cc12 [Example 667, (3aR,4S,6aS)-N-[(5-fluoro-3-methyl-1H-indol-2-yl)methyl]-2-[6-(trifluoromethyl)pyridin-2-yl]octahydrocyclopenta[c]pyrrol-4-amine]"
7,> 9.5,"CN[C@H](C(=O)N[C@H]1CC[C@@H]2CN(c3ccc(C(F)(F)F)cc3)C[C@@H]21)C(C)C [Example 747, N^2-methyl-N-{(3aR,4S,6aS)-2-[4-(trifluoromethyl)phenyl]octahydrocyclopenta[c]pyrrol-4-yl}-L-valinamide]"
8,14.4,"O=C(N[C@H]1CC[C@@H]2CN(c3cccc(F)c3)C[C@@H]21)[C@@H]1C[C@@H](F)CN1 [Example 640, (4R)-4-fluoro-N-[(3aR,4S,6aS)-2-(3-fluorophenyl)octahydrocyclopenta[c]pyrrol-4-yl]-L-prolinamide]"
9,2.24,"FC(F)(F)c1cccc(N2C[C@H]3CC[C@H](NCc4cc5ccccc5[nH]4)[C@H]3C2)n1 [Example 612, (3aR,4S,6aS)-N-(1H-indol-2-ylmethyl)-2-[6-(trifluoromethyl)pyridin-2-yl]octahydrocyclopenta[c]pyrrol-4-amine]"
10,2.39,"CN[C@@H](CC(C)C)C(=O)N[C@H]1CC[C@@H]2CN(c3ccccc3Cl)C[C@@H]21 [Example 634, N-[(3aR,4S,6aS)-2-(2-chlorophenyl)octahydrocyclopenta[c]pyrrol-4-yl]-N^2-methyl-L-leucinamide]"
11,0.41,"Cc1ccc(CN[C@H]2CC[C@@H]3CN(c4cccc(C(F)(F)F)n4)C[C@@H]32)cc1 [Example 649, (3aR,4S,6aS)-N-(4-methylbenzyl)-2-[6-(trifluoromethyl)pyridin-2-yl]octahydrocyclopenta[c]pyrrol-4-amine]"
12,2.1,"O=C(N[C@H]1CC[C@@H]2CN(c3ccc(C(F)(F)F)cn3)C[C@@H]21)c1cc2ccccc2[nH]1 [Example 568, N-{(3aR,4S,6aS)-2-[5-(trifluoromethyl)pyridin-2-yl]octahydrocyclopenta[c]pyrrol-4-yl}-1H-indole-2-carboxamide]"
13,18.9,"N#Cc1cccc(N2C[C@H]3CC[C@H](NC(=O)[C@@H]4C[C@@H](F)CN4)[C@H]3C2)c1 [Example 632, (4R)-N-[(3aR,4S,6aS)-2-(3-cyanophenyl)octahydrocyclopenta[c]pyrrol-4-yl]-4-fluoro-L-prolinamide]"
14,0.74,"Cc1ccc(-c2n[nH]cc2CN[C@H]2CC[C@@H]3CN(c4cccc(C(F)(F)F)n4)C[C@@H]32)cc1 [Example 673, (3aR,4S,6aS)-N-{[3-(4-methylphenyl)-1H-pyrazol-4-yl]methyl}-2-[6-(trifluoromethyl)pyridin-2-yl]octahydrocyclopenta[c]pyrrol-4-amine]"
15,2.16,"CN[C@@H](CC(C)C)C(=O)N[C@H]1CC[C@@H]2CN(c3cccc(C#N)c3)C[C@@H]21 [Example 646, N-[(3aR,4S,6aS)-2-(3-cyanophenyl)octahydrocyclopenta[c]pyrrol-4-yl]-N^2-methyl-L-leucinamide]"
16,> 30,"COc1cccc(N2C[C@H]3CC[C@H](NC(=O)[C@@H]4C[C@@H](F)CN4)[C@H]3C2)c1 [Example 645, (4R)-4-fluoro-N-[(3aR,4S,6aS)-2-(3-methoxyphenyl)octahydrocyclopenta[c]pyrrol-4-yl]-L-prolinamide]"
17,2.99,"O=C(Nc1ccc(Cl)cc1)N[C@H]1CC[C@@H]2CN(c3cccc(C(F)(F)F)n3)C[C@@H]21 [Example 713, 1-(4-chlorophenyl)-3-{(3aR,4S,6aS)-2-[6-(trifluoromethyl)pyridin-2-yl]octahydrocyclopenta[c]pyrrol-4-yl}urea]"
18,0.67,"O=C(N[C@H]1CC[C@H]2CN(Cc3cccc(C(F)(F)F)c3)C[C@H]21)C(c1ccccc1)c1ccccc1 (relative stereo) [Example 135, 2,2-diphenyl-N-{(3aS*,4S*,6aR*)-2-[3-(trifluoromethyl)benzyl]octahydrocyclopenta[c]pyrrol-4-yl}acetamide]"
19,2.78,"Fc1ccc2[nH]c(CN[C@H]3CC[C@@H]4CN(c5cccc(OC(F)(F)F)c5)C[C@@H]43)cc2c1 [Example 715, (3aR,4S,6aS)-N-[(5-fluoro-1H-indol-2-yl)methyl]-2-[3-(trifluoromethoxy)phenyl]octahydrocyclopenta[c]pyrrol-4-amine]"

# Same assay, conditions: read-out: IC50 (μM) or percent inhibition (* indicates 3 minute incubation, otherwise 60 minute); IC50; 60 minute pre-incubation with compound; IMR32 cells, 80 mM KCl depolarization
row,IC50 [µM],SMILES
1,1.18,"CC(C)C(C(=O)N[C@H]1CC[C@@H]2CN(Cc3cccc(C(F)(F)F)c3)C[C@@H]21)c1ccccc1 (stereo partly drawn) [Example 88, 3-methyl-2-phenyl-N-{(3aR,4S,6aS)-2-[3-(trifluoromethyl)benzyl]octahydrocyclopenta[c]pyrrol-4-yl}butanamide]"
2,1.04,"O=C(CCC(c1ccc(F)cc1)c1ccc(F)cc1)N[C@@H]1CC[C@H]2CN(Cc3cccc(C(F)(F)F)c3)C[C@H]21 (relative stereo) [Example 144, 4,4-bis(4-fluorophenyl)-N-{(3aS*,4R*,6aR*)-2-[3-(trifluoromethyl)benzyl]octahydrocyclopenta[c]pyrrol-4-yl}butanamide]"
3,1.12,"CC(C)C(C(=O)N[C@H]1CC[C@@H]2CN(CCCCC(c3ccc(F)cc3)c3ccc(F)cc3)C[C@@H]21)c1ccccc1 (stereo partly drawn) [Example 119, N-{(3aR,4S,6aS)-2-[5,5-bis(4-fluorophenyl)pentyl]octahydrocyclopenta[c]pyrrol-4-yl}-3-methyl-2-phenylbutanamide]"
4,2.08,CC(C)C[C@@H](C(=O)N[C@@H]1CC[C@@H]2CN(Cc3ccccc3)C[C@@H]21)N(C)C(=O)OC(C)(C)C [Example 241]
5,12.4,"CN[C@@H](CC(C)C)C(=O)N[C@@H]1CC[C@H]2CN(S(=O)(=O)c3ccccc3)C[C@H]21 [Example 448, N^2-methyl-N^1-[(3aS,4R,6aR)-2-(phenylsulfonyl)octahydrocyclopenta[c]pyrrol-4-yl]-L-leucinamide]"
6,1.46,"CC(C)[C@H](N)CC(=O)N[C@@H]1CC[C@H]2CN(S(=O)(=O)c3cccc(C(F)(F)F)c3)C[C@H]21 [Example 397, (3R)-3-amino-4-methyl-N-((3aS,4R,6aR)-2-{[3-(trifluoromethyl)phenyl]sulfonyl}octahydrocyclopenta[c]pyrrol-4-yl)pentanamide]"
7,4.13,"CC[C@H](C(=O)N[C@H]1CC[C@H]2CN([C@@H](C)c3ccccc3)C[C@H]21)c1ccccc1 [Example 212, (2S)-2-phenyl-N-{(3aS,4S,6aR)-2-[(1S)-1-phenylethyl]octahydrocyclopenta[c]pyrrol-4-yl}butanamide]"
8,1.42,"CN[C@@H](CC(C)(C)C)C(=O)N(C)[C@H]1CC[C@@H]2CN(S(=O)(=O)c3ccc(C(F)(F)F)cc3Cl)C[C@@H]21 [Example 439, N^1-((3aR,4S,6aS)-2-{[2-chloro-4-(trifluoromethyl)phenyl]sulfonyl}octahydrocyclopenta[c]pyrrol-4-yl)-N^1,N^2,4-trimethyl-L-leucinamide]"
9,3.75,"CCC[C@H](NC)C(=O)N[C@H]1CC[C@@H]2CN(S(=O)(=O)c3cc(C(F)(F)F)cc(C(F)(F)F)c3)C[C@@H]21 [Example 538, N^1-((3aR,4S,6aS)-2-{[3,5-bis(trifluoromethyl)phenyl]sulfonyl}octahydrocyclopenta[c]pyrrol-4-yl)-N^2-methyl-L-norvalinamide]"
10,2.01,"CC(C)C(C(=O)N[C@H]1CC[C@@H]2CN(Cc3ccc(F)cc3)C[C@@H]21)c1ccccc1 (stereo partly drawn) [Example 89, N-[(3aR,4S,6aS)-2-(4-fluorobenzyl)octahydrocyclopenta[c]pyrrol-4-yl]-3-methyl-2-phenylbutanamide]"
11,3.59,"CC(C)C(C(=O)N[C@H]1CC[C@@H]2CN(Cc3ccccc3F)C[C@@H]21)c1ccccc1 (stereo partly drawn) [Example 85, N-[(3aR,4S,6aS)-2-(2-fluorobenzyl)octahydrocyclopenta[c]pyrrol-4-yl]-3-methyl-2-phenylbutanamide]"
12,1.54,"O=S(=O)(c1cccc(C(F)(F)F)c1)N(C1CC1)[C@H]1CC[C@H]2CN(CCC(c3ccc(F)cc3)c3ccc(F)cc3)C[C@H]21 (relative stereo) [Example 203, N-{(3aS*,4S*,6aR*)-2-[3,3-bis(4-fluorophenyl)propyl]octahydrocyclopenta[c]pyrrol-4-yl}-N-cyclopropyl-3-(trifluoromethyl)benzenesulfonamide]"
